# Assays:
# [1] = test system: fecal suspension from the selected donor; assay: Intestinal batch fermentation, SCFA production (first set); type: cell-based, human; details: after 48 h fermentation, vs corresponding control
# Summary of the method: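 Test ingredients were added to modified nutritional medium inoculated with fresh donor fecal suspension. Incubation ran 48 h at 37° C, 90 rpm, anaerobic, with ethanol blanks and single repeats. SCFA were sampled at 0, 6, 24 and 48 h, diethyl ether-extracted and quantified by GC-FID against a 2-methyl hexanoic acid internal standard; molar sums were taken as unbranched, branched and total SCFA.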
# HT29 cells = assay: HT29 cell culture, quantification of immunological biomarkers; type: cell-based; details: effluent from 24 h fermentation, vs corresponding control
# [2] = test system: Co-cultures of Caco-2 and HT29-MTX-E12 cells; assay: Barrier integrity, leaky gut model, basolateral stressor 5% EtOH; type: cell-based; details: 0.2× dose, vs corresponding control; for Lucifer yellow, basolateral induction of leaky gut cellular model: 48 h fermentation samples; for TEER, basolateral induction of leaky gut cellular model: 48 h minus 0 h fermentation samples
# Description: Since ethanol is known to have antimicrobial effects, two blanks for each type of stock solution were included. As a source of the microbial community, a freshly prepared fecal suspension from the selected donor was added to the reactors. […] All tests, except the blanks, were performed in single repetition, resulting in 40 independent incubations, as specified in Table 1. Incubation conditions of the pre-screening experiment and the final experiment were 48 h at 37° C., under shaking (90 rpm) and anaerobic conditions. […] Effluent samples were collected from each fermentation flask before (0 h fermentation) and after fermentation (48 h fermentation), sterilized by filtering through 0.22 μm filters and used for short chain fatty acids (SCFA), quantification of immunological biomarkers and in vitro analysis in cell culture systems.
# Co-cultures of Caco-2 and HT29-MTX-E12 cells were used to assess the protective effect of the supernatants before (0 h) and after fermentation (48 h) for both sets of in vitro experiments above.
# CaCo-2 ECACC 86010202 and HT29-MTX-E12 ECACC 12040401 cells (both from European Collection of Cell Cultures, Salisbury, UK) were both cultured at 37° C., in atmosphere of 5% CO2 in DMEM medium supplemented with 4.5 g/L D-Glucose, 4 mM L-Glutamine, 1 mM Sodium Pyruvate, 1% MEM Non-Essential Amino Acids, 50 μg/mL Gentamicin (Life Technologies Europe B.V., Zug, Switzerland) and 10% heat-inactivated FBS (Sigma-Aldrich, Buchs, Switzerland). Sub-confluent cells were trypsinized using 0.25% Trypsin/EDTA (Life Technologies Europe B.V., Zug, Switzerland) and passaged at a ratio of 1:5-1:10 twice a week. Cells between passages 55 and 85 were used for this study.
# Cells were seeded at a density of 20000 cells/well in a 7:3 ratio (Caco-2:HT29-MTX-E12) in Corning HTS Transwell-24 system PET membranes, 0.4 μM pore size, cell growth area 0.33 cm2/well (Corning BV, Amsterdam, Netherlands) and cultured as described above. Media was changed every second to third day.
# For both sets of in vitro experiments, the integrity of cell monolayers after the stressor test was evaluated by both TEER values and by measuring the transport of Lucifer yellow from apical to basolateral compartments (Leaky gut model). […] The inserts were rinsed twice with HBSS using a reservoir tray, 100 μl HBSS were then added to the apical site of the inserts and subsequently moved to new wells with fresh HBSS and allowed to equilibrate at 37° C. for 60 min in the incubator followed by TEER measurement to obtain baseline resistance readings. […]
# [3] = test system: Co-cultures of Caco-2 and HT29-MTX-E12 cells; assay: Barrier integrity, leaky gut model, apical stressor Rhamnolipids; type: cell-based; details: vs corresponding control; for Lucifer yellow, apical induction of leaky gut cellular model: 48 h fermentation samples; for TEER, apical induction of leaky gut cellular model: 48 h minus 0 h fermentation samples
molecule,measurement,setting,value
"Cc1cc2nc3c(=O)[nH]c(=O)nc-3n(C[C@H](O)[C@H](O)[C@H](O)CO)c2cc1C [Vitamin B2, riboflavin]",butyrate production,[1]; 5× dose,increase butyrate production
same,GROa-CXCL1 production by HT29 cells,HT29 cells; 1× dose,increase GROa-CXCL1 production
same,IL-8 production by HT29 cells,HT29 cells; 1× dose,increase IL-8 production
same,GROa-CXCL1 production by HT29 cells,HT29 cells; 5× dose,increase GROa-CXCL1 production
same,IL-8 production by HT29 cells,HT29 cells; 5× dose,increase IL-8 production
same,"Lucifer yellow, basolateral induction of leaky gut cellular model",[2],decrease Lucifer yellow
same,"TEER, basolateral induction of leaky gut cellular model",[2],increase TEER
same,"Lucifer yellow, apical induction of leaky gut cellular model",[3]; 0.2× dose,decrease Lucifer yellow
same,"TEER, apical induction of leaky gut cellular model",[3]; 0.2× dose,increase TEER
Vitamin E,acetate production,[1]; 1× dose,increase acetate production
same,propionate production,[1]; 1× dose,increase propionate production
same,total SCFAs production,[1]; 1× dose,increase total SCFAs production
same,acetate production,[1]; 5× dose,increase acetate production
same,IL-8 production by HT29 cells,HT29 cells; 0.2× dose,increase IL-8 production
same,MIP3A-CCL20 production by HT29 cells,HT29 cells; 0.2× dose,increase MIP3A-CCL20 production
same,IL-8 production by HT29 cells,HT29 cells; 1× dose,increase IL-8 production
same,MIP3A-CCL20 production by HT29 cells,HT29 cells; 1× dose,increase MIP3A-CCL20 production
same,GROa-CXCL1 production by HT29 cells,HT29 cells; 5× dose,increase GROa-CXCL1 production
same,IL-8 production by HT29 cells,HT29 cells; 5× dose,increase IL-8 production
same,MIP3A-CCL20 production by HT29 cells,HT29 cells; 5× dose,increase MIP3A-CCL20 production
same,"Lucifer yellow, basolateral induction of leaky gut cellular model",[2],decrease Lucifer yellow
same,"TEER, basolateral induction of leaky gut cellular model",[2],increase TEER
same,"TEER, apical induction of leaky gut cellular model",[3]; 0.2× dose,increase TEER
same,"Lucifer yellow, apical induction of leaky gut cellular model",[3]; 1× dose,decrease Lucifer yellow
same,"TEER, apical induction of leaky gut cellular model",[3]; 1× dose,increase TEER
same,"Lucifer yellow, apical induction of leaky gut cellular model",[3]; 5× dose,decrease Lucifer yellow
same,"TEER, apical induction of leaky gut cellular model",[3]; 5× dose,increase TEER
